Experimental data published in BindingDB's records for doi:10.1016/s0968-0896(99)00101-7 (Otsuka Pharmaceutical Co., Ltd, 1999).

Columns and labels:
Vasopressin V1a receptor = Vasopressin V1a receptor (Homo sapiens, UniProt P37288); assay: Radioligand Binding Assay to HeLa Cells
Description: (§1) After reaching confluence in 12-well or 24-well dishes, the cells were washed twice with ice-cold PBS and incubated for 2 hr with [3H]-AVP at 4 deg C. For the competition experiment, test compounds were dissolved in dimethyl sulfoxide, diluted with DMEM medium and added into the wells at several appropriate concentrations. […] The protein content of the lysed cells was determined by the method of Bradford.

Vasopressin V2 receptor = Vasopressin V2 receptor (Homo sapiens, UniProt P30518); assay: Radioligand Binding Assay to HeLa Cells; conditions: pH 7.4; 4 °C
Vasopressin V2 receptor, sequence (P30518 whole entry): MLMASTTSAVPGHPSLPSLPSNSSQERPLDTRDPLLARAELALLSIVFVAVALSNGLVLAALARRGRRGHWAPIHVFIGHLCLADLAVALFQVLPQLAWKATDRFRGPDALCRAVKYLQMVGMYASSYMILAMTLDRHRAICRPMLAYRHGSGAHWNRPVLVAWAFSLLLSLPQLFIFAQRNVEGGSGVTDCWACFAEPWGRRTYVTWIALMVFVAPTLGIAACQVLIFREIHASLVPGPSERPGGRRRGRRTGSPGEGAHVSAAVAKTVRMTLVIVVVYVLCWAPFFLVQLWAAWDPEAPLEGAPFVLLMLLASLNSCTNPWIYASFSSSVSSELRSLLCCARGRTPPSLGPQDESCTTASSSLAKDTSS
Description: as §1

Vasopressin V1a receptor, sequence (P37288 whole entry): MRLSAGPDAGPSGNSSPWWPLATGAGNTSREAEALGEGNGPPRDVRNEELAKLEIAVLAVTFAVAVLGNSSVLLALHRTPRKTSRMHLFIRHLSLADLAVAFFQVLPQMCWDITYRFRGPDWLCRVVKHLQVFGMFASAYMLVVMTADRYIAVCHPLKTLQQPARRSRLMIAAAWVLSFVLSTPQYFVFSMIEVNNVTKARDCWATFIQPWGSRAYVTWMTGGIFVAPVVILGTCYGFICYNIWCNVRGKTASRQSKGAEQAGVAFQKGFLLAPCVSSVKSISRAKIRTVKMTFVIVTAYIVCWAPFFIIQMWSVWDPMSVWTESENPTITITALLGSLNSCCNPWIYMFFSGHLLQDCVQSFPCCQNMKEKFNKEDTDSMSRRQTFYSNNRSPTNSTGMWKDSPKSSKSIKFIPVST

| IC50 (Vasopressin V1a receptor; pH 7.4, 4 °C) [nM] | IC50 (Vasopressin V2 receptor) [nM] | IC50 (Vasopressin V1a receptor) [nM] | Compound |
| --- | --- | --- | --- |
| 53 | 9 |  | C=CCOC1CCCN(C(=O)c2ccc(NC(=O)c3ccccc3C)cc2)c2ccc(Cl)cc21 (stereo not drawn) [benzazepine derivative, 22] |
| 290 | 8 |  | Cc1ccccc1C(=O)Nc1ccc(C(=O)N2CCCC(O)c3cc(Cl)ccc32)c(Cl)c1 (stereo not drawn) [benzazepine derivative, 30] |
| 31 | 28 |  | Cc1ccccc1C(=O)Nc1ccc(C(=O)N2CCCC(O)c3cc(Cl)ccc32)cc1Cl (stereo not drawn) [benzazepine derivative, 31] |
|  | 13 | 39 | COc1cc(NC(=O)c2ccccc2C)ccc1C(=O)N1CCCC(O)c2cc(Cl)ccc21 (stereo not drawn) [benzazepine derivative, 33] |
|  | 5 | 7 | COc1cc(C(=O)N2CCCC(O)c3cc(Cl)ccc32)ccc1NC(=O)c1ccccc1C (stereo not drawn) [benzazepine derivative, 34] |

More lines, now with the values behind:

| Compound | IC50 (Vasopressin V1a receptor; pH 7.4, 4 °C) [nM] | IC50 (Vasopressin V2 receptor) [nM] | IC50 (Vasopressin V1a receptor) [nM] |
| --- | --- | --- | --- |
| CNC1CCCN(C(=O)c2ccc(NC(=O)c3ccccc3C)cc2)c2ccc(Cl)cc21 (stereo not drawn) [benzazepine derivative, 13a] | 64 | 7 |  |
| Cc1ccccc1C(=O)Nc1ccc(C(=O)N2CCCC(N(C)C)c3cc(Cl)ccc32)cc1 (stereo not drawn) [benzazepine derivative, 14] | 190 | 25 |  |
| Cc1ccccc1C(=O)Nc1ccc(C(=O)N2CCCC(N(C)C)c3ccc(Cl)cc32)cc1 (stereo not drawn) [benzazepine derivative, 15] | 1200 | 63 |  |
| Cc1ccccc1C(=O)Nc1ccc(C(=O)N2CCCC(N(C)C)c3cccc(Cl)c32)cc1 (stereo not drawn) [benzazepine derivative, 16] | 540 | 140 |  |
| Cc1ccccc1C(=O)Nc1ccc(C(=O)N2CCCC(N(C)C)c3c(Cl)cccc32)cc1 (stereo not drawn) [benzazepine derivative, 17] | 1700 | 190 |  |
| C=CCNC1CCCN(C(=O)c2ccc(NC(=O)c3ccccc3C)cc2)c2ccc(Cl)cc21 (stereo not drawn) [benzazepine derivative, 18] | 45 | 18 |  |
| C=CCN(C)C1CCCN(C(=O)c2ccc(NC(=O)c3ccccc3C)cc2)c2ccc(Cl)cc21 (stereo not drawn) [benzazepine derivative, 19] | 350 | 97 |  |
| Cc1ccccc1C(=O)Nc1ccc(C(=O)N2CCCC(O)c3cc(Cl)ccc32)cc1 (stereo not drawn) [benzazepine derivative, 20] | 17 | 3 |  |
| COC1CCCN(C(=O)c2ccc(NC(=O)c3ccccc3C)cc2)c2ccc(Cl)cc21 (stereo not drawn) [benzazepine derivative, 21] | 34 | 5 |  |
